Entries after “also recorded” stand apart in the source; their conditions may differ. Where a name gives a salt, the structure may show the parent alone. Read-outs that look alike come from different tables or passages of the source. Blank lines part the entries; values can stand above or below the molecule they belong to.
Tests used:
[1] = BG or BG-d1 metabolites in blood samples after iv injection (HPLC peak height); type: in vivo, male Wistar rats; details: rat, iv, BG versus BG-d1
Method: (§1) Blood samples were taken from male Wistar rats immediately before and at several intervals after intravenous injection of BG or BG-d1. Blood serum was separated by centrifugation. Equal amounts of blood serum and HPLC-grade acetonitrile were mixed and centrifuged at 13,000 rpm (15,000×g) for 5 minutes. Samples were then analyzed for BG or BG-d1 content by High Performance Liquid Chromatography (HPLC). Samples were placed in an autosampler programmed for replicate injections of […] each onto a 4.6×250 mm LC18 HPLC column. The column was eluted with 45% aqueous methanol delivered at 1 ml/min. BG or BG-d1 were detected by using a spectrofluorometer set at excitation and emission wavelengths of 255 and 283 nm, respectively. The slit width used was 10 nm. Quantitation of the amount of BG or BG-d1 in serum samples was performed with an electronic integrator calibrated with standard solutions of BG or BG-d1 in the mobile phase (Pettersen et al., Anticancer Res., 6; 147-152, 1986).
Measurement of BG or BG-d1 metabolites in blood samples (Table 6)
HPLC of blood samples was performed as indicated above. Relative amounts of BG- or BG-d1 -metabolite were determined by peak height analysis. The peak height from the electronic integrator (in microvolts) of samples taken 30 minutes after iv injection of BG, or 60 minutes after iv injection of BG-d1 were normalized to 1. All other metabolite peaks were compared with these values.
At the same time as BG or BG-d1 metabolism was being determined, a separate metabolite peak appeared in HPLC chromatograms. The increase in BG- and BG-d1 -metabolite and subsequent clearance was measured.

NHIK 3025 cells [2] = experiment: Protein synthesis rate ((3H)valine incorporation); type: cell-based, human; details: 3.2 mM
Text: (§2) Human cells of the established line NHIK 3025, originating from a cervical carcinoma in situ (Nordbye, K., and Oftebro, R. Exp. Cell Res., 58: 458, 1969), Oftebro, R., and Nordbye, K., Exp. Cell Res., 58: 459-460, 1969) were cultivated in Medium E2a (Puck, T.T. et al., J. Exp. Med., 106:145-165, 1957) supplemented with 20% human (prepared at the laboratory) and 10% horse serum (Grand Island Biological Co.). The cells are routinely grown as monolayers in tissue culture flasks.
(§3) The cells were kept in continuous exponential growth by frequent reculturing, i.e., every second and third day, and synchronized cell populations with a high degree of synchrony were obtained by repeated selection of mitotic cells (Pettersen, E. O. et al, Cell Tissue Kinet., 10: 511-522, 1977). During the synchronization procedure, the cells were kept in Medium E2a, and the whole experiment took place in a walk-in incubator at 37° C. Under growth conditions as used here, the NHIK 3025 cells have a medium cell-cycle time of ~18 hr, with medium G1, S1 and G2 durations of ~7, ~8, and ~2.5 hr, respectively.
The rate of protein synthesis was calculated as described previously (Ronning, O. W. et al., J. Cell Physiol., 107: 47-57, 1981). Briefly, cellular protein was labeled to saturation during a 2-day preincubation with (^14 C)valine of constant specific radioactivity (0.5 Ci/mol) prior to the experiment. This was achieved by using a high concentration of valine so that the dilution of (^14 C)valine by intracellular valine and by proteolytically generated valine will be negligible (Ronning, O. W., et al. Exp. Cell Res. 123: 63-72, 1979), thus keeping the specific radioactivity at a constant level. The rate of protein synthesis was calculated from the incorporation of (3H)valine of constant specific activity. The incorporation measurements were related to the total of (^14 C) radioactivity in protein at the beginning of the respective measurement periods and expressed as the percentage per hr (Ronning, O. W. et al, J. Cell, Physiol. 107: 47-57, 1981).
[…] The last measurements were done to test the reversibility of the drugs. Drug concentration: 3.2 mM.

[3] = Concentration of BG or BG-d1 in blood samples after iv injection (HPLC); type: in vivo, male Wistar rats; details: rat, iv
Method: Measurement of concentration of 4,6-O-benzylidene-D-glucose (BG) or 4,6-O-deuterobenzylidene-d1 -D-glucose (BG-d1) in blood samples (Table 5).
as §1
We have compared the metabolism in rats of BG as well as of deuterated BG (BG-d1). In Table 5 the serum concentration of BG or BG-d1 is shown at various time points after a single iv injection of each drug, respectively.

NHIK 3025 cells [4] = experiment: Cell survival (colony formation) after 24 hr treatment; type: cell-based; details: Homo sapiens, NHIK3025, 24 h
Text: as §2, §3
For measurement of cell survival, appropriate numbers of cells were seeded in plastic Petri dishes (.phi.=5 cm). The number of cells seeded into each dish was adjusted such that the number of surviving cells would be approximately 150 per dish. While exponentially growing (asynchronous) cells were trypsinized before seeding, synchronized cells were seeded immediately after selection. After about 2 hr, the cells had attached to the bottom of the dishes, and the treatment was started by replacing the medium with medium containing the appropriate drug concentration. After the desired time of treatment, the drug-containing medium was removed, and fresh medium was added. The dishes were rinsed once with the same medium as was to be added on addition or removal of drug. After 10 to 12 days at 37° C. in a CO2 incubator, the cells were fixed in ethanol and stained with methylene blue before the colonies were counted.
The cytotoxic effect of benzaldehyde and of deuterobenzaldehyde-d1 was tested on asynchronous, exponentially growing NHIK 3025 cells by counting the number of cells able to form colonies after 24 hr treatment in Petri dishes. In Table 1 the results represent 2 different, independent experiments where the numbers give the mean fraction of surviving cells from 10 parallel dishes (± standard error).
Fraction of cells surviving 24 hr treatment with benzaldehyde or deuterobenzaldehyde - d1 in Petri dishes. (The values represent the mean±standard error from 10 different dishes.)

NHIK 3025 cells [5] = experiment: Duration of cell cycle-time of synchronized cells; type: cell-based, human; details: 8 hr treatment
Text: as §2, §3
(§4) For detection of the drug effects on cell-cycle kinetics, the same methods were used as described previously (Lindmo, T., and Pettersen, E. O., Cell Tissue Kinet., 12: 43-57, 1979), (Pettersen, E. O. et al, Eur. J. Cancer Clin. Oncol., 19: 507-514; 1983), (Ronning, O.W. et al., J. Cell. Physiol., 109: 411-419, 1981). Briefly, the selected mitotic cells were seeded into 8 tissue culture flasks (25 sq cm) 5000 cells per flask. The cells divided within 1 hr and attached as doublets to the bottom of the flasks. […] Analyses of durations of mitosis were performed from these observations (Table 4).
This is shown by the data in Table 3, where we have used synchronized cells treated over an 8 hr period starting 2 hr after mitotic selection, i.e. when the cells were in early Gl.

NHIK 3025 cells [6] = experiment: Duration of mitosis of synchronized cells; type: cell-based, human; details: 3.2 mM during mitosis
Text: as §2, §3, §4
This effect is probably directly related to the aldehyde group (Pettersen et al. Cancer Res. 45: 2085-2091, 1985). If the deuterated aldehyde group induces different biological effects from the undeuterated one it is therefore good reason to expect this to be expressed as a difference in effect on cells in mitosis. In Table 4 results are shown on prolongation of mitosis of synchronized cells treated with benzaldehyde or deuterobenzaldehyde-d1 during mitosis. The numbers in the table represent the percentage of the cells having a duration of mitosis below 1 hr (which is normal for untreated cells) or above the number of hours indicated on top of each column.

[7] = Solubility in water, pH of solution and stability of benzylidene ascorbic acid compounds; type: physicochemical; details: for Stability (in words): free acid compared with mono-basic salt
Text: The structural formula is shown below. The structure has been confirmed by IR and NMR. […] The pH of the solution is 6.6. [drawing 8] The beneficial properties of the drug composition according to the present invention are illustrated below in connection with a series of experiments which have been performed.

[8] = read-out: Cell survival of cells treated for 24 hr
[9] = read-out: Fraction of cells surviving 24 hr treatment

concentration at 0 h ([3]; serum, 0 minutes (estimated), read-out: Amount of unmetabolized drug in blood samples): 345 µM
concentration at 2 min ([3]; serum, 2 minutes, read-out: Amount of unmetabolized drug in blood samples): 220 ± 20 µM
concentration at 5 min ([3]; serum, 5 minutes, read-out: Amount of unmetabolized drug in blood samples): 160 ± 20 µM
concentration at 10 min ([3]; serum, 10 minutes, read-out: Amount of unmetabolized drug in blood samples): 140 ± 20 µM
concentration at 0.25 h ([3]; serum, 15 minutes, read-out: Amount of unmetabolized drug in blood samples): 100 ± 20 µM
concentration at 20 min ([3]; serum, 20 minutes, read-out: Amount of unmetabolized drug in blood samples): 97 ± 3 µM
concentration at 0.5 h ([3]; serum, 30 minutes, read-out: Amount of unmetabolized drug in blood samples): 66 ± 15 µM
concentration at 1 h ([3]; serum, 60 minutes, N.F. = Not Found, read-out: Amount of unmetabolized drug in blood samples): 10 ± 5 µM
half-life ([3]; serum, read-out: half-life in vivo): ~15 min
Structure (SMILES): [2H]C1(c2ccccc2)OC[C@H]2OC(O)[C@H](O)[C@@H](O)[C@@H]2O1 (stereo partly drawn) [BG-d1, 4,6-O-deuterobenzylidene-d1 -D-glucose]
Clearance (or further metabolization) of metabolite (in words) [1]: slower clearance kinetics than that formed from BG
Protein synthesis (NHIK 3025 cells [2]; asynchronous cells, 3 hr treatment, pulse 0-1 hr, during treatment, Table 8, control 5.7 ± 0.5): 3.0 ± 0.3 %/hr
Protein synthesis (NHIK 3025 cells [2]; asynchronous cells, 3 hr treatment, pulse 2-3 hr, during treatment, Table 8, control 5.7 ± 0.5): 3.4 ± 0.3 %/hr
Protein synthesis (NHIK 3025 cells [2]; synchronized cells, 22 hr treatment, pulse 21-22 hr, during treatment, Table 8, control 5.3 ± 0.2): 4.6 ± 0.2 %/hr
Protein synthesis (NHIK 3025 cells [2]; synchronized cells, 22 hr treatment, pulse 23-24 hr, after treatment, Table 8, control 5.3 ± 0.2): 5.4 ± 0.1 %/hr
Metabolism and clearance from serum (in words) ([3]; compared with BG): slower than that of the undeuterated compound; also recorded: clearly slower metabolism and clearance from serum
viability at 6400 µM (NHIK 3025 cells [4]; [8]): 33 ± 7%
viability at 12800 µM (NHIK 3025 cells [4]; [8]): 0.8 ± 0.3%

Structure (SMILES): [2H]C(=O)c1ccccc1 [Deuterobenzaldehyde-d1]
Prolongation (NHIK 3025 cells [5]; 2 mM, versus control 1): 15.2%
Duration of the part of the cell cycle starting 2 hr after selection (NHIK 3025 cells [5]; 2 mM, control 1 16.5): 19.0
Prolongation (NHIK 3025 cells [5]; 2.5 mM, versus control 2): 108.3%
Duration of the part of the cell cycle starting 2 hr after selection (NHIK 3025 cells [5]; 2.5 mM, control 2 16.8): 35.0
Protein synthesis (NHIK 3025 cells [2]; 4 hr treatment, pulse 0-1, during treatment, Table 2, control 6.8 ± 0.9): 3.6 ± 0.3 %/hr
Protein synthesis (NHIK 3025 cells [2]; 4 hr treatment, pulse 4-5, after treatment, Table 2, control 6.8 ± 0.9): 4.7 ± 0.3 %/hr
Protein synthesis (NHIK 3025 cells [2]; 4 hr treatment, pulse 5-6, after treatment, Table 2, control 6.8 ± 0.9): 5.8 ± 0.3 %/hr
Percentage of cells with duration of mitosis >4 h (NHIK 3025 cells [6]): 70%
Percentage of cells with duration of mitosis >5 h (NHIK 3025 cells [6]): 69%
Percentage of cells with duration of mitosis >6 h (NHIK 3025 cells [6]): 64%
Percentage of cells with duration of mitosis >3 h (NHIK 3025 cells [6]; control 2%): 74%
Percentage of cells with duration of mitosis >2 h (NHIK 3025 cells [6]; control 4%): 81%
Percentage of cells with duration of mitosis >1 h (NHIK 3025 cells [6]; control 17%): 87%
Percentage of cells with duration of mitosis <1 h (NHIK 3025 cells [6]; control 83%): 13%
viability at 3200 µM (NHIK 3025 cells [4]; [9]): 68 ± 14%
viability at 12800 µM (NHIK 3025 cells [4]; [9]): 0.56 ± 0.2%

Stability (in words) [7]: instability
Structure (SMILES): [2H]C1(c2ccccc2)OC[C@@H]([C@H]2OC(=O)C(O)=C2O)O1 (stereo partly drawn) [deutero 5,6-O-benzylidene ascorbic acid, deutero 5,6-O-benzylidene-L-ascorbic acid]

pH of the solution ([7]; aqueous solution of mono-sodium salt): 6.6
Stability (in words) [7]: much more stable
Solubility in water ([7]; water): readily soluble in water
Structure (SMILES): [2H]C1(c2ccccc2)OC[C@@H]([C@H]2OC(=O)C(O)=C2O)O1 (stereo partly drawn) [mono-sodium salt of deutero 5,6-O-benzylidene-L-ascorbic aci] [mono-sodium salt of deutero 5,6-O-benzylidene-L-ascorbic acid]

Source: patent US4874780A, “Anticancer compounds” (Norsk Hydro a.s., priority 1987, dated 1989)
